Reference: patent US12544370B2, “Methods for cancer therapy” (ASCENTAGE PHARMA (SUZHOU) CO., LTD., priority 2018, dated 2026)

Test system: TKI-resistant patients with chronic phase (CP) or accelerated phase (AP) CML
Assay: Phase I study, safety / treatment related adverse events (Example 1)
Details: Example 1
From the text: The eligible patients received treatments until disease progression or intolerable toxicities. The primary efficacy endpoint in the CML AP and CP patients, was complete hematological response (CHR) and major cytogenetic response (MCyR) respectively, MCyR includes partial cytogenetic response (PCyR) and complete cytogenetic response (CCyR). Blood samples were collected at various time points on Day 1-2 and Day 27-28 during cycle 1 for PK analyses.
• 3 to 6 subjects in each dose group (traditional 3+3 dose increasing method) • Up to 15 subjects in the MTD dose group (safety and PK characteristics) • Dose extension studies: • Up to 60 subjects (CP/CML-AP) • Extended dose selection is based on initial safety and efficacy Study Endpoints Primary Endpoint

[1] = treatment related AE, all patients

Compound: Cc1ccc(C(=O)Nc2ccc(CN3CCN(C)CC3)c(C(F)(F)F)c2)cc1C#Cc1cnc2[nH]ncc2c1 [compound of formula (I-A), 3-(2-(1H-pyrazolo[3,4-b]pyridin-5-yl)ethynyl)-4-methyl-N-(4-((4-methylpiperazin-1-yl)methyl)-3-(trifluoromethyl)phenyl)-benzamide]
- Lipase increased leading to dose interruption/reduction, percent of cohort (40 mg (n = 37)): (2.7%)
- Thrombocytopenia leading to dose interruption/reduction (40 mg (n = 37)): 11 n
- Thrombocytopenia leading to dose interruption/reduction, percent of cohort (40 mg (n = 37)): (30%)
- ALT increased leading to dose interruption/reduction (45 mg (n = 3)): 0 n (%)
- AST increased leading to dose interruption/reduction (45 mg (n = 3)): 0 n (%)
- Amylase increased leading to dose interruption/reduction (45 mg (n = 3)): 0 n (%)
- Anemia leading to dose interruption/reduction (45 mg (n = 3)): 0 n (%)
- Atrial fibrillation leading to dose interruption/reduction (45 mg (n = 3)): 0 n (%)
- Cardiomyopathy leading to dose interruption/reduction (45 mg (n = 3)): 0 n (%)
- GGT increased leading to dose interruption/reduction (45 mg (n = 3)): 0 n (%)
- Hyperkalemia leading to dose interruption/reduction (45 mg (n = 3)): 0 n (%)
- Hypertriglyceridemia leading to dose interruption/reduction (45 mg (n = 3)): 0 n (%)
- Hypocalcemia leading to dose interruption/reduction (45 mg (n = 3)): 0 n (%)
- Lacunar infarction leading to dose interruption/reduction (45 mg (n = 3)): 0 n (%)
- Lipase increased leading to dose interruption/reduction (45 mg (n = 3)): 0 n (%)
- Thrombocytopenia leading to dose interruption/reduction (45 mg (n = 3)): 2(67%) n (%)
- ALT increased leading to dose interruption/reduction (50 mg (n = 24)): 1 n
- ALT increased leading to dose interruption/reduction, percent of cohort (50 mg (n = 24)): (4.2%)
- AST increased leading to dose interruption/reduction (50 mg (n = 24)): 1 n
- AST increased leading to dose interruption/reduction, percent of cohort (50 mg (n = 24)): (4.2%)
- Amylase increased leading to dose interruption/reduction (50 mg (n = 24)): 0 n (%)
- Anemia leading to dose interruption/reduction (50 mg (n = 24)): 0 n (%)
- Atrial fibrillation leading to dose interruption/reduction (50 mg (n = 24)): 0 n (%)
- Cardiomyopathy leading to dose interruption/reduction (50 mg (n = 24)): 0 n (%)
- GGT increased leading to dose interruption/reduction (50 mg (n = 24)): 0 n (%)
- Hyperkalemia leading to dose interruption/reduction (50 mg (n = 24)): 0 n (%)
- Hypertriglyceridemia leading to dose interruption/reduction (50 mg (n = 24)): 0 n (%)
- Hypocalcemia leading to dose interruption/reduction (50 mg (n = 24)): 1 n
- Hypocalcemia leading to dose interruption/reduction, percent of cohort (50 mg (n = 24)): (4.2%)
- Lacunar infarction leading to dose interruption/reduction (50 mg (n = 24)): 1 n
- Lacunar infarction leading to dose interruption/reduction, percent of cohort (50 mg (n = 24)): (4.2%)
- Lipase increased leading to dose interruption/reduction (50 mg (n = 24)): 1 n
- Lipase increased leading to dose interruption/reduction, percent of cohort (50 mg (n = 24)): (4.2%)
- Thrombocytopenia leading to dose interruption/reduction (50 mg (n = 24)): 8 n
- Thrombocytopenia leading to dose interruption/reduction, percent of cohort (50 mg (n = 24)): (33%)
- ALT increased leading to dose interruption/reduction (60 mg (n = 3)): 0 n (%)
- AST increased leading to dose interruption/reduction (60 mg (n = 3)): 0 n (%)
- Amylase increased leading to dose interruption/reduction (60 mg (n = 3)): 0 n (%)
- Anemia leading to dose interruption/reduction (60 mg (n = 3)): 0 n (%)
- Atrial fibrillation leading to dose interruption/reduction (60 mg (n = 3)): 0 n (%)
- Cardiomyopathy leading to dose interruption/reduction (60 mg (n = 3)): 1(33%) n (%)
- GGT increased leading to dose interruption/reduction (60 mg (n = 3)): 0 n (%)
- Hyperkalemia leading to dose interruption/reduction (60 mg (n = 3)): 0 n (%)
- Hypertriglyceridemia leading to dose interruption/reduction (60 mg (n = 3)): 0 n (%)
- Hypocalcemia leading to dose interruption/reduction (60 mg (n = 3)): 0 n (%)
- Lacunar infarction leading to dose interruption/reduction (60 mg (n = 3)): 0 n (%)
- Lipase increased leading to dose interruption/reduction (60 mg (n = 3)): 0 n (%)
- Thrombocytopenia leading to dose interruption/reduction (60 mg (n = 3)): 2(67%) n (%)
- patients with dose-limiting toxicity (DLT) (60 mg cohort): Two out of 3
- patient withdrawal from the study because of TRAEs (70 patients): no patient withdrawal
- maximum toxic dosage (MTD) (QOD): 50 mg
- tolerability (median follow-up of 4.1 (1.0-21.2) cycles): well-tolerated in all dose cohorts other than the 60 mg cohort
- Alanine aminotransferase increased, Any grade [1]: 29 (29%) n (%)
- Alanine aminotransferase increased, Grade 3-4 [1]: 2 (2.0%) n (%)
- Alanine aminotransferase increased, SAE [1]: 0 n (%)
- Anaemia, Any grade [1]: 10 (10%) n (%)
- Anaemia, Grade 3-4 [1]: 9 (9.0%) n (%)
- Anaemia, SAE [1]: 2 (2.0%) n (%)
- Aspartate aminotransferase inceased, Any grade [1]: 31 (31%) n (%)
- Aspartate aminotransferase inceased, Grade 3-4 [1]: 2 (2.0%) n (%)
- Aspartate aminotransferase inceased, SAE [1]: 0 n (%)
- Blood bilirubin increased, Any grade [1]: 28 (28%) n (%)
- Blood bilirubin increased, Grade 3-4 [1]: 1 (1.0%) n (%)
- Blood bilirubin increased, SAE [1]: 0 n (%)
- Blood creatine phosphokinase increased, Any grade [1]: 19 (19%) n (%)
- Blood creatine phosphokinase increased, Grade 3-4 [1]: 1 (1.0%) n (%)
- Blood creatine phosphokinase increased, SAE [1]: 0 n (%)
- Hypertriglyceridaemia, Any grade [1]: 51 (51%) n (%)
- Hypertriglyceridaemia, Grade 3-4 [1]: 4 (4.0%) n (%)
- Hypertriglyceridaemia, SAE [1]: 0 n (%)
- Hypocalcaemia, Any grade [1]: 31 (31%) n (%)
- Hypocalcaemia, Grade 3-4 [1]: 0 n (%)
- Hypocalcaemia, SAE [1]: 0 n (%)
- Leukopenia, Any grade [1]: 17 (17%) n (%)
- Leukopenia, Grade 3-4 [1]: 15 (15%) n (%)
- Neutropenia, Any grade [1]: 2 (2.0%) n (%)
- Neutropenia, Grade 3-4 [1]: 0 n (%)
- Neutropenia, SAE [1]: 0 n (%)
- Proteinuria, Any grade [1]: 11 (11%) n (%)
- Proteinuria, Grade 3-4 [1]: 1 (1.0%) n (%)
- Proteinuria, SAE [1]: 0 n (%)
- Skin hyperpigmentation, Any grade [1]: 35 (35%) n (%)
- Skin hyperpigmentation, Grade 3-4 [1]: 0 n (%)
- Skin hyperpigmentation, SAE [1]: 0 n (%)
- Thrombocytopenia, Any grade [1]: 46 (46%) n (%)
- Thrombocytopenia, Grade 3-4 [1]: 45 (45%) n (%)
- Thrombocytopenia, SAE [1]: 5 (5.0%) n (%)
- leukocytosis, Any grade [1]: 9 (9.0%) n (%)
- leukocytosis, Grade 3-4 [1]: 8 (8.0%) n (%)
- leukocytosis, SAE [1]: 0 n (%)
- leukopenia, SAE [1]: 0 n (%)
